Legend:
[1] = test system: DPIV (dipeptidyl peptidase IV); assay: X-ray crystallography of DPIV crystal treated with inhibitor (FIG. 5); type: binding; conditions: active center of DPIV around Ser630; 2F0-F0 density outlined at 1σ
From the text: Oxygen atoms are depicted in red, nitrogen atoms in blue, and carbon atoms in gray. Additionally, the inhibitor as well as Ser630, which is covalently coupled to the inhibitor, is overlaid by its 2F0-F0 electron density (outlined at 1σ). The inhibitor is clearly defined concerning its electron density (FIG. 5).
From the used tripeptide having the sequence Ile-Pro-Ile, the C-terminal isoleucine is cleaved off while the dipeptide remains covalently linked with Ser630 and is not cleaved off.
The target enzyme was DPIV (dipeptidyl peptidase IV). Different fragments were solved in a cocktail together. In a cocktail (i), molecules of two different molecule species were combined, i.e. a mimetic (altered peptide backbone (vinyl derivative) of the N-terminal dipeptide of a substrate of the DPIV (having a free N-terminus) and, on the other hand, a mimetic (also a dipeptide with acetylated, blocked N-terminus, also. as. framework mimetic—vinyl derivative). In a second cocktail (ii), five different molecule species (which differed concerning both side chains of the two dipeptide mimetics) from each of the two mimetic classes, i.e. 10 molecule species altogether, were combined in a cocktail.

thrombin = assay: X-ray crystallography of freely mounted crystal after dripping on picoliter drops (FIG. 4); type: binding; conditions: active center of thrombin around Ser195; 2F0-F0 density outlined at 1σ
From the text: FIG. 4: The covalently bound inhibitor as well as individual amino acids in the environment of the active center of the thrombin around Ser195 are depicted in the form of a stick model. Oxygen atoms are depicted in red, sulfur atoms in yellow, nitrogen atoms in blue, and carbon atoms in gray. Additionally, the inhibitor is overlaid by its 2F0-F0 electron density (outlined at 1σ). The inhibitor is clearly defined concerning its electron density.
Thereby, evidence has been offered that the approach of dripping picoliter drops onto a protein crystal by use of the free mounting system works.

In the case of diprotin A, the “binding mode seen in electron density” value [1] is reported as “rather acts as a suicide substrate than as an inhibitor”.

With `O=S(=O)(F)Cc1ccccc1` [PMSF, phenylmethylsulfonyl fluoride] the “binding seen in experimentally determined electron density” value (thrombin) was “covalent bond of the PMSF at Ser195”.
